Test results from ChEMBL document CHEMBL1201862, “PubChem BioAssay data set” (2004).
Active and inactive are the calls of the source.

Tests used:
[1] = A549 cell cytotoxicity, dose response, cytotoxicity control, plate reader, cherry-pick, antagonist series (AID 743412); format: functional, cell-based
[2] = LGR2 antagonists, dose response, cell-based, HEK293, CRE-luciferase reporter, cherry pick, set 2 (AID 743343); format: functional;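 note: transfected cells were stimulated with diluted bursicon conditioned medium after compound addition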
[3] = MC4R antagonists, dose response, counter-screen for LGR2 antagonist project, cell-based, plate reader, cherry pick (AID 743444); format: functional;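 note: transfected HEK 293 cells stimulated with alpha-MSH peptide; potency of inhibitors of the alpha-MSH evoked signal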
[4] = molecular target: Cytochrome P450 3A4 (Homo sapiens, UniProt P08684); details: Potency;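 note: confirmatory qHTS run detecting inhibitors and substrates of CYP3A4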
[5] = molecular target: T1, Ubiquitin-conjugating enzyme E2 N (Homo sapiens, UniProt P61088); format: functional;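 note: Dose-response confirmation in a TR-FRET assay detecting UBC13-driven polyubiquitin chain formation, inhibition measured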
T1 sequence (P61088 whole entry): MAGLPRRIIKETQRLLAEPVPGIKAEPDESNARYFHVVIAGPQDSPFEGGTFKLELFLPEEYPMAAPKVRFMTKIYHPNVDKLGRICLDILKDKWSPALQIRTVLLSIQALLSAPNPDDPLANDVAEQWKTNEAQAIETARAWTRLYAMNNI

[6] = molecular target: T2, DNA repair and recombination protein RAD54-like (Homo sapiens, UniProt Q92698); assay: inhibitors of human RAD54 branch migration, confirmation, biochemical, fluorescence, cherry-picked samples, dose series (AID 651657); format: functional
T2 sequence (Q92698 whole entry): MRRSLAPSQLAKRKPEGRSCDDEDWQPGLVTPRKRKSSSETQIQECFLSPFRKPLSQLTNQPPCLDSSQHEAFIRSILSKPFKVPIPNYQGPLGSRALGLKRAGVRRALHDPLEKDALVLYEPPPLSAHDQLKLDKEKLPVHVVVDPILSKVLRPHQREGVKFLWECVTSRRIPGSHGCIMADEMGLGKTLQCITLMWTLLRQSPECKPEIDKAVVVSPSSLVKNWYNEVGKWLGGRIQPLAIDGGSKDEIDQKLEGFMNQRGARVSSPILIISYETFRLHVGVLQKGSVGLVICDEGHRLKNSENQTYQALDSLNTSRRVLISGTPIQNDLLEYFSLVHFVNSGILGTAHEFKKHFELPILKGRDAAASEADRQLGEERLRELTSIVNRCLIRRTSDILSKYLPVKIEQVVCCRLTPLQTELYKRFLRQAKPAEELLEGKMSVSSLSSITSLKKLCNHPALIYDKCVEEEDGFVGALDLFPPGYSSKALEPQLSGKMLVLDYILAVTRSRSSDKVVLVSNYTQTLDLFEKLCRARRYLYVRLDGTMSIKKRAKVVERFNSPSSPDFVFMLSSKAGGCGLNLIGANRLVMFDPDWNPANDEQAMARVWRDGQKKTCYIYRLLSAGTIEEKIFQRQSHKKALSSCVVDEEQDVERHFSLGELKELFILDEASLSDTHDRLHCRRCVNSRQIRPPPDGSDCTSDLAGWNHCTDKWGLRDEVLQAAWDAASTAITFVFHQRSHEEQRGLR

[7] = inhibitors of HIV Env-driven cell fusion, dose response, cherry-pick (AID 652057); format: functional, cell-based
[8] = ZM109 Env clade C HIV-1 fusion inhibitors, dose response, HeLa effector, CEM target cells, luciferase, cherry-pick (AID 652058); format: functional, cell-based
[9] = off-target signal loss in HeLa-CEM21 co-culture – HeLa F-luc CTL cells, cherry-picked, counter-screen for HIV-1 Env fusion inhibitor project, dose response (AID 652040); format: functional, cell-based;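 note: potency for signal decrease marking cytotoxic or nonspecific inhibition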
[10] = inhibitors of clade B AD8 Env fusion, dose response, cell-based, cherry-pick (AID 652062); format: functional;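 note: luciferase signal from cell-cell fusion driven by HIV-1 clade B AD8 Env; potency is for inhibitors of fusion seen as a drop in luminescence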
[11] = cells; format: functional, cell-based
[12] = molecular target: T3, Trace amine-associated receptor 1 (Homo sapiens, UniProt Q96RJ0); assay: Fluorescence-based cell-based high throughput dose response assay to identify agonists of the human trace amine associated receptor 1 (TAAR1).; format: functional
T3 sequence (Q96RJ0 whole entry): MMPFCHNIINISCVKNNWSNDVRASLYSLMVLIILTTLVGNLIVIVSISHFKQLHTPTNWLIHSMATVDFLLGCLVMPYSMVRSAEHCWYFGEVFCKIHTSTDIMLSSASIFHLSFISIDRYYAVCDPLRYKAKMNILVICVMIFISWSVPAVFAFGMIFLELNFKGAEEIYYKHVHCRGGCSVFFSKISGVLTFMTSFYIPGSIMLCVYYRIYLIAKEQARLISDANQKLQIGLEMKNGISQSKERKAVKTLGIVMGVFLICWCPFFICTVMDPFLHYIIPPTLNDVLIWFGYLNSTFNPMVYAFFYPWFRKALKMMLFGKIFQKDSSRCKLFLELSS

[13] = molecular target: T3, Trace amine-associated receptor 1; assay: Counterscreen for agonists of the human trace amine associated receptor 1 (hTAAR1): Fluorescence-based cell-based high throughput dose response assay to identify hTAAR1 agonist that also desensitize TAAR1 receptor response.; format: functional
[14] = cells; format: functional, cell-based; remark: listed apart in the source
[15] = Luminescence Cell-Based Dose Confirmation HTS to Identify Activators of 5'UTR Stem-Loop Driven Alpha-Synuclein mRNA Translation in H4 Neuroglioblastoma Cells. [Related pubchem assays: 1829 (Project Summary), 1814 (Primary HTS)]; format: functional
[16] = Luminescence Cell-Based Dose Response HTS to Identify Activators of Luciferase Translation or Activity in H4 […] Cells. [Related pubchem assays: 1829 (Project Summary), 1814 (Primary HTS)]; format: functional
[17] = test system: H4; assay: Luminescence Cell-Based Dose Response HTS to Identify Activators of 5'UTR Stem-Loop Driven Prion Protein mRNA Translation in H4 Neuroglioblastoma Cells. [Related pubchem assays: 1829 (Project Summary), 1814 (Primary HTS)]; format: functional; details: Homo sapiens
[18] = THP-1 cell cytotoxicity, dose response, cytotoxicity control for non-replicating M. tuberculosis project (AID 489025); format: functional
[19] = cells; format: functional
[20] = test system: BJ; assay: cytotoxicity toward BJ-TERT fibroblasts, dose response, cell-based, RAS-independent, luminescence (AID 1933); format: functional; details: Homo sapiens
[21] = test system: BJ; assay: cells; format: functional, cell-based; details: Homo sapiens
[22] = test system: BJ; assay: cytotoxicity toward BJ-TERT-LT-ST fibroblasts, dose response, cell-based, RAS-independent, luminescence (AID 1935); format: functional; details: Homo sapiens;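 note: BJ fibroblasts immortalized with TERT plus LT and ST oncogenes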
[23] = cytotoxicity toward DRD oncogenic fibroblasts, dose response, cell-based, non-viral oncogenic, luminescence (AID 1934); format: functional; details: Homo sapiens
[24] = test system: P388/ADR; assay: cells; format: functional; details: Mus musculus
[25] = test system: SN12K1; assay: cells; format: functional; details: Homo sapiens
[26] = test system: P388; assay: cells; format: functional; details: Mus musculus
[27] = molecular target: Paired box protein Pax-8 (Homo sapiens, UniProt Q06710); assay: inhibitors of PAX8-driven TPO luciferase reporter, dose response, RMG-I cells, cherry-pick (AID 687027); format: functional, cell-based;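 note: luciferase reporter driven by Pax8 target thyroperoxidase promoter measured by SteadyGlo luminescence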
[28] = NIH:OVCAR-3 ovarian cancer cell cytotoxicity, dose response, PAX8 inhibitor project, plate reader, dry powder samples (AID 743044); format: functional, cell-based
[29] = IGROV1 ovarian cancer cell cytotoxicity, dose response, PAX8 inhibitor project, plate reader, dry powder samples (AID 743043); format: functional, cell-based; details: IGROV-1
[30] = cytotoxicity in OVCAR8 ovarian cancer cells, dose response, PAX8 project, cell-based, plate reader, dry powder samples (AID 743197); format: functional; details: OVCAR-8
[31] = P. falciparum Dd2 growth inhibitors, dose response, SYBR Green, cherry-picked samples (AID 1159567); format: functional, cell-based

Chain of Paired box protein Pax-8 (Q06710 whole entry): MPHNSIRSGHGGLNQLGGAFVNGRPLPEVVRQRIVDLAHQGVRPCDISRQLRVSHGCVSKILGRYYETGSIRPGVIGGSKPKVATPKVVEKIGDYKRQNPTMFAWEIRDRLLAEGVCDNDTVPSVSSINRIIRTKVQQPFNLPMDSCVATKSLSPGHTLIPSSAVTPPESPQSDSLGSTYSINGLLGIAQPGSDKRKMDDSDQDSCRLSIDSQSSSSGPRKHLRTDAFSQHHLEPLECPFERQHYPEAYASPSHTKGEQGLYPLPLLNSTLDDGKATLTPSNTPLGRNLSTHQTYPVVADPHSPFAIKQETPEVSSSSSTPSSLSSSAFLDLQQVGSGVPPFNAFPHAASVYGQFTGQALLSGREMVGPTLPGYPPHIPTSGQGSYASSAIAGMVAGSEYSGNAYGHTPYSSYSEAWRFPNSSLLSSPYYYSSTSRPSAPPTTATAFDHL
Chain of Cytochrome P450 3A4 (P08684 whole entry): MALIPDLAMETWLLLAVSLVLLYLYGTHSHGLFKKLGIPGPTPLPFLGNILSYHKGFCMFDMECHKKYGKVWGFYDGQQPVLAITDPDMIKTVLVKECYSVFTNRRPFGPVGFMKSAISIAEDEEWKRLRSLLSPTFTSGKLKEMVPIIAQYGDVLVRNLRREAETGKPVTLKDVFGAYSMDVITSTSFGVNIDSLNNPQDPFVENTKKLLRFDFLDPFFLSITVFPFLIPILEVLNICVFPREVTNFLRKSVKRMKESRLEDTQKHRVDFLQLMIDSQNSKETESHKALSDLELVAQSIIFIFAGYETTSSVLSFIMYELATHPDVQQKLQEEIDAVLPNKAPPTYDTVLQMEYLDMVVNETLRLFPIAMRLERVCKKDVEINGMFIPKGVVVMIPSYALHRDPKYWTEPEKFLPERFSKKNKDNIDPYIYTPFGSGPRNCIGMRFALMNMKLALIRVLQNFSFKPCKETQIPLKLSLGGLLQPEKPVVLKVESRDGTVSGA

## COCCOc1cc(NCc2ccccc2)c2ncn(C(C)C)c2c1
[1]
  AC50: 44.3 µM (active)
[2]
  AC50: 12 µM (active)
[3]
  AC50: 17.9 µM (active)

## CNC(=O)C1(C)C=CC2(CCCCC2)N1C(C)=O (configuration not stated)
[4]
  AC50: 15.8 µM (inconclusive)

## COC1=CC(=O)OC(CCc2ccccc2)C1 (configuration not stated)
[4]
  AC50: 12.6 µM (inconclusive)

## CCN(CC)CCNC(=O)c1cc2c(=O)n(C)c3ccccc3c2s1
[5]
  IC50: > 20 µM (inactive)
[6]
  AC50: 19.6 µM (active)

## Cc1nnc(SCc2nc3ccccc3c(=O)n2-c2ccccc2Cl)n1N
[7]
  AC50: 4.45 µM (active)
[8]
  AC50: 4.98 µM (active)
[9]
  AC50: 4.79 µM (active)
[10]
  AC50: 10.2 µM (active)

## Nc1c(NCCc2ccccc2)c2ccccc2oc1=O
[11]
  IC50: > 29.9 µM (inactive)
[12]
  EC50: 1.86 µM (active)
[13]
  IC50: 6.4 µM (active)
[14]
  EC50: > 29.9 µM (inactive)

## CCN(CC)CCCNC(=O)c1ccc2c3n(nc2c1)-c1ccc(Cl)cc1CO3
[15]
  EC50: 101 µM (active)
[16]
  EC50: 3.59 µM (active)
[17]
  EC50: 334 nM (active)
[6]
  AC50: 44.5 µM (active)

## COc1cc2cc[n+]3cc4c(OC)c(OC)ccc4cc3c2cc1OC
[4]
  AC50: 20 µM (inconclusive)

## CCOC(=O)CNC(=O)CNC(=O)c1nn(-c2ccc(OC)c(Cl)c2)c(=O)c2ccccc12
[18]
  CC50: > 40 µM (active)
[19]
  IC50: 17.8 µM (active)

## CCc1ccc(CN(C(=O)COc2c(C)cccc2C)C2CCS(=O)(=O)C2)cc1 (configuration not stated)
[20]
  EC50: > 150 µM (not active)
[21]
  EC50: > 150 µM (not active)
[22]
  EC50: > 150 µM (inconclusive)
[23]
  EC50: > 150 µM (not active)

## c1ccc(-c2nc(NCCCn3ccnc3)c3oc4ccccc4c3n2)cc1
[6]
  AC50: 100 µM (inactive)

## CCN1C(=O)[C@H]2[C@@H](c3ccc(C)cc3)N3C(=O)N(c4cccc(Br)c4)C(=O)[C@@]3(CC)[C@H]2C1=O
[7]
  AC50: 4.44 µM (active)
[8]
  AC50: 3.01 µM (active)
[9]
  AC50: 6.04 µM (active)
[10]
  AC50: 1.18 µM (active)

## COc1cccc(OC)c1C(=O)NCCc1ccccc1
[11]
  IC50: > 29.9 µM (inactive)
[12]
  EC50: 2.64 µM (active)
[13]
  IC50: 9.6 µM (active)
[14]
  EC50: > 29.9 µM (inactive)

## O=C[C@@H](CO)O[C@H](C=O)c1c[nH]c(=O)[nH]c1=O
[24]
  GI50: 38.1 µM (inactive)
[25]
  GI50: 76.6 µM (inactive)
[26]
  GI50: > 80.7 µM (inactive)

## CCCC(=O)OCC1OC(n2ccc(N)nc2=O)C(OC(=O)CCC)C1OC(=O)CCC (configuration not stated)
[24]
  GI50: 11.1 µM (inactive)
[25]
  GI50: 1.86 µM (inactive)
[26]
  GI50: 0.2 µM (active)

## CC(C)Cc1ccc(C(C)C(=O)N2CCN(/C=C/c3ccccc3)CC2)cc1 (configuration not stated)
[24]
  GI50: 10.9 µM (inactive)
[25]
  GI50: 13.7 µM (inactive)
[26]
  GI50: 7.35 µM (inactive)

## COC(=O)c1ccc(/N=N/N(C)COc2ccc(Br)cc2)cc1
[24]
  GI50: 32.8 µM (inactive)
[25]
  GI50: > 66.8 µM (inactive)
[26]
  GI50: 27 µM (inactive)

## O/N=N/c1cnccn1
[24]
  GI50: 668 µM (inactive)
[25]
  GI50: 1070 µM (inactive)
[26]
  GI50: > 721 µM (inactive)

## C[C@@H]1CN([C@H](C)CO)C(=O)c2cc(NC(=O)Nc3ccc(C(F)(F)F)cc3)ccc2O[C@@H](C)CCCCO[C@@H]1CN(C)Cc1ccc2c(c1)OCO2
[27]
  AC50: 5.56 µM (active)
[28]
  AC50: 25.1 µM (active)
[29]
  AC50: 28.4 µM (active)
[30]
  AC50: 26.4 µM (active)

## O=C(CCn1c(=S)[nH]c2cc3c(cc2c1=O)OCO3)NCCc1ccccc1Cl
[11]
  IC50: > 29.9 µM (inactive)
[12]
  EC50: 7.04 µM (active)
[13]
  IC50: 9.24 µM (active)
[14]
  EC50: > 29.9 µM (inactive)

## C[C@H](CO)N1C[C@H](C)[C@@H](CN(C)S(=O)(=O)c2cccc(F)c2)OCc2ccccc2-c2c(n(C)c3ccccc23)C1=O
[27]
  AC50: 11.1 µM (active)
[28]
  AC50: 43.2 µM (active)
[30]
  AC50: > 70 µM (inactive)
[31]
  AC50: 4.19 µM (active)

## C[C@@H]1CN([C@@H](C)CO)C(=O)Cc2cc(N(C)C)ccc2O[C@H]1CN(C)Cc1ccc(C(=O)Nc2ccccc2N)cc1
[27]
  AC50: 16.6 µM (active)
[28]
  AC50: < 0.26 µM (active)
[29]
  AC50: 45.1 µM (active)
[30]
  AC50: > 70 µM (inactive)

## CC1=C(C(=O)OCc2ccccc2)C(c2ccc(C(F)(F)F)cc2)NC(=O)N1CCCCCC(=O)O (configuration not stated)
[4]
  AC50: 15.8 µM (inconclusive)

## Cc1ccsc1/C=N/NC(=O)Cn1nc(C)c([N+](=O)[O-])c1C
[11]
  IC50: > 29.9 µM (inactive)
[12]
  EC50: 3.79 µM (active)
[13]
  IC50: 5.81 µM (active)
[14]
  EC50: > 29.9 µM (inactive)

## COc1ccc(-c2cc(=O)c3c(O)c(OC)c(OC)c(OC)c3o2)cc1OC [5-DEMETHYLNOBILETIN]
[4]
  AC50: 10 µM (inconclusive)
